In the test the test system is P388 leukemia ip, CD2F1 mice, survival T/C. Description: NCI In Vivo Anticancer Drug Screen. Data for tumor model P388 Leukemia (intraperitoneal) in CD2F1 (CDF1) mice. To be noted: endpoint: median survival time, higher = longer survival. The procedure, abridged: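 Mice carrying the transplanted tumor received test compound or vehicle. Survival was recorded in each group, and the value is the treated-group measurement divided by that of the vehicle-treated control group.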

The mark [1] stands for this setting: dose: 50.0 mg/kg/injection, schedule: Q01DX005 (ip), vehicle: Klucel (hydroxypropylcellulose) (HPC).
Where [2] appears, read: dose: 100.0 mg/kg/injection, schedule: Q01DX005 (ip), vehicle: Klucel (hydroxypropylcellulose) (HPC).
[3] abbreviates: dose: 60.0 mg/kg/injection, schedule: Q01DX005 (ip), vehicle: saline with Tween-80.
[4] abbreviates: dose: 120.0 mg/kg/injection, schedule: Q01DX005 (ip), vehicle: saline with Tween-80.
Setting [5] is: dose: 240.0 mg/kg/injection, schedule: Q01DX005 (ip), vehicle: saline with Tween-80.
The mark [6] stands for this setting: dose: 50.0 mg/kg/injection, schedule: Q01DX005 (ip), vehicle: saline with Tween-80.
[7] abbreviates: dose: 100.0 mg/kg/injection, schedule: Q01DX005 (ip), vehicle: saline with Tween-80.
Setting [8] is: dose: 200.0 mg/kg/injection, schedule: Q01DX005 (ip), vehicle: saline with Tween-80.
Where [9] appears, read: dose: 25.0 mg/kg/injection, schedule: Q01DX005 (ip), vehicle: Klucel (hydroxypropylcellulose) (HPC).
The mark [10] stands for this setting: dose: 50.0 mg/kg/injection, schedule: Q01DX009 (ip), vehicle: Klucel (hydroxypropylcellulose) (HPC).
[11] abbreviates: dose: 50.0 mg/kg/injection, schedule: Q01DX009 (ip), vehicle: saline with Tween-80.
Where [12] appears, read: dose: 100.0 mg/kg/injection, schedule: Q01DX009 (ip), vehicle: saline with Tween-80.
Setting [13] is: dose: 200.0 mg/kg/injection, schedule: Q01DX009 (ip), vehicle: saline with Tween-80.
Setting [14] is: dose: 400.0 mg/kg/injection, schedule: Q01DX009 (ip), vehicle: saline with Tween-80.
Where [15] appears, read: dose: 200.0 mg/kg/injection, schedule: Q01DX005 (ip), vehicle: Klucel (hydroxypropylcellulose) (HPC).
The mark [16] stands for this setting: dose: 25.0 mg/kg/injection, schedule: Q01DX009 (ip), vehicle: saline with Tween-80.
Where [17] appears, read: dose: 50.0 mg/kg/injection, schedule: Q01DX009 (ip), vehicle: saline.

Where “and” joins values, the source holds several entries; their conditions need not be identical. Equal values may be shown once. Inconclusive results and toxic doses are left out.

`CN=C1c2ccccc2C(=O)c2c1c(O)n(-c1ccccc1)c2O`: the T/C under setting [1] is 96 % of control and the T/C under setting [2] is 100 % of control.

With `COC(=O)/C=C(/C(=O)OC)N(O)C(=O)CN1C(=O)c2ccccc2C1=O`, the T/C runs as follows: under setting [3], 102 % of control; under setting [4], 100 % of control; under setting [5], 101 % of control.

Consider `COc1cccc(-c2nc(SCC(N)=O)[nH]c(=O)c2C#N)c1`, for which the T/C runs as follows: under setting [6], 112 % of control; under setting [7], 98 % of control; under setting [8], 98 % of control.

As to `CCN(CC)C1CS(=O)(=O)OC(c2ccccc2)=C1C` (stereo not given), the T/C was 100 % of control under setting [6], 102 % of control under setting [7] and 100 % of control under setting [8].

With `CC1(C)N=C(NN=C2CCCCC2)SP1(=O)NCC(=O)O` (stereo not given), the T/C was 101 % of control (dose: 60.0 mg/kg/injection, schedule: Q01DX005 (ip), vehicle: Klucel (hydroxypropylcellulose) (HPC)); 100 % of control (dose: 120.0 mg/kg/injection, schedule: Q01DX005 (ip), vehicle: Klucel (hydroxypropylcellulose) (HPC)); 101 % of control (dose: 240.0 mg/kg/injection, schedule: Q01DX005 (ip), vehicle: Klucel (hydroxypropylcellulose) (HPC)).

On to `CN1C(=O)c2ccccc2NC12CCN(Cc1ccccc1)CC2`, for which the T/C is 103 % of control under setting [9], 95 % of control under setting [1] and 97 % of control under setting [2].

Take `CC12CCC(c3sc(N)c(C#N)c31)C2(C)C` (stereo not given): the T/C is 114 % of control (dose: 12.5 mg/kg/injection, schedule: Q01DX009 (ip), vehicle: Klucel (hydroxypropylcellulose) (HPC)); 104 % of control (dose: 25.0 mg/kg/injection, schedule: Q01DX009 (ip), vehicle: Klucel (hydroxypropylcellulose) (HPC)); 104 % of control under setting [10].

For the compound `S=C1SCN(C2CCCCCCCCCCC2)CN1C1CCCCCCCCCCC1`, the T/C runs as follows: under setting [11], 94 % of control; under setting [12], 93 % of control; under setting [13], 97 % of control; under setting [14], 101 % of control.

On to `CC(=O)OCc1cocc1COC(C)=O`, for which the T/C runs as follows: under setting [1], 100 % of control and 103 % of control; under setting [2], 107 % of control and 98 % of control; under setting [15], 117 % of control and 94 % of control.

Take `CCN(CC)CCNC1=CC(=S)NC(C)(C)C1`: the T/C was 103 % of control under setting [16], 94 % of control under setting [11], 106 % of control under setting [12] and 94 % of control under setting [13].

In the case of `CCCCOc1ccc(NN=O)cn1`, the T/C was 106 % of control (dose: 3.12 mg/kg/injection, schedule: Q01DX009 (ip), vehicle: water); 92 % of control (dose: 6.25 mg/kg/injection, schedule: Q01DX009 (ip), vehicle: water); 99 % of control (dose: 12.5 mg/kg/injection, schedule: Q01DX009 (ip), vehicle: water); 93 % of control (dose: 25.0 mg/kg/injection, schedule: Q01DX009 (ip), vehicle: water); 92 % of control and 97 % of control (dose: 50.0 mg/kg/injection, schedule: Q01DX009 (ip), vehicle: water); 97 % of control (dose: 100.0 mg/kg/injection, schedule: Q01DX009 (ip), vehicle: water). For the same compound, where the note is “dose: 200.0 mg/kg/injection, schedule: Q01DX009 (ip), vehicle: water”, the T/C was 101 % of control.

As for `CCCNc1cc(C)cc2[nH]c(C)nc12`, the T/C is, setting by setting: under setting [9], 103 % of control; under setting [1], 100 % of control; under setting [2], 103 % of control; under setting [15], 94 % of control.

Turning to `N=[N+]=NC1C(O)C(CO)OC1n1cnc2c(N)ncnc21` (stereo not given), the T/C is 118 % of control (dose: 5.0 mg/kg/injection, schedule: Q03HX016 (ip), vehicle: Klucel (hydroxypropylcellulose) (HPC)); 110 % of control (dose: 10.0 mg/kg/injection, schedule: Q03HX016 (ip), vehicle: Klucel (hydroxypropylcellulose) (HPC)); 153 % of control (dose: 80.0 mg/kg/injection, schedule: Q03HX016 (ip), vehicle: Klucel (hydroxypropylcellulose) (HPC)); 64 % of control (dose: 160.0 mg/kg/injection, schedule: Q03HX016 (ip), vehicle: Klucel (hydroxypropylcellulose) (HPC)).

With `COc1cc2cc3cc(-c4ccc(Cl)cc4)c(N4CCN(C)CC4)nc3nc2cc1OC`, the T/C is, setting by setting: under setting [3], 94 % of control; under setting [4], 101 % of control; under setting [5], 111 % of control.

As to `Cc1cc(C2C(=O)c3ccccc3C2=O)cc(C(C)(C)C)c1O`, the T/C runs as follows: (dose: 100.0 mg/kg/injection, schedule: Q04DX002 (ip), vehicle: saline) 115 % of control; (dose: 200.0 mg/kg/injection, schedule: Q04DX002 (ip), vehicle: saline) 107 % of control; (dose: 400.0 mg/kg/injection, schedule: Q04DX002 (ip), vehicle: saline) 96 % of control.

Consider `O=C(O)C1Cc2c([nH]c3ccccc23)C2CCC(=O)N12` (stereo not given), for which the T/C runs as follows: (dose: 25.0 mg/kg/injection, schedule: Q04DX003 (ip), vehicle: suspension in saline) 106 % of control; (dose: 50.0 mg/kg/injection, schedule: Q04DX003 (ip), vehicle: suspension in saline) 96 % of control; (dose: 100.0 mg/kg/injection, schedule: Q04DX003 (ip), vehicle: suspension in saline) 98 % of control; (dose: 200.0 mg/kg/injection, schedule: Q04DX003 (ip), vehicle: suspension in saline) 98 % of control.

For the compound `NC(=S)c1ccc(C=Nc2ccc(I)cc2)cc1`, the T/C runs as follows: (dose: 25.0 mg/kg/injection, schedule: Q01DX001 (ip), vehicle: Klucel (hydroxypropylcellulose) (HPC)) 93 % of control; (dose: 50.0 mg/kg/injection, schedule: Q01DX001 (ip), vehicle: Klucel (hydroxypropylcellulose) (HPC)) 102 % of control; (dose: 100.0 mg/kg/injection, schedule: Q01DX001 (ip), vehicle: Klucel (hydroxypropylcellulose) (HPC)) 100 % of control.

For the compound `O=S(=O)(Nc1nccs1)c1ccc(Nc2c3ccccc3nc3ncccc23)cc1`, the T/C under setting [3] is 93 % of control and the T/C under setting [4] is 89 % of control.

`O=c1[nH]cnc2[nH]cc([N+](=O)[O-])c12`: the T/C is 102 % of control (dose: 6.25 mg/kg/injection, schedule: Q01DX009 (ip), vehicle: saline); 107 % of control (dose: 12.5 mg/kg/injection, schedule: Q01DX009 (ip), vehicle: saline); 102 % of control (dose: 25.0 mg/kg/injection, schedule: Q01DX009 (ip), vehicle: saline); 103 % of control under setting [17].

Turning to `Cn1c(-c2ccccc2)c(-c2ccccc2)c(=O)c(-c2ccccc2)c1-c1ccccc1`, the T/C under setting [10] was 92 % of control; the T/C (dose: 100.0 mg/kg/injection, schedule: Q01DX009 (ip), vehicle: Klucel (hydroxypropylcellulose) (HPC)) was 92 % of control; the T/C (dose: 200.0 mg/kg/injection, schedule: Q01DX009 (ip), vehicle: Klucel (hydroxypropylcellulose) (HPC)) is 91 % of control.

Regarding `CC(C)(C)C(=O)CP(=O)(O)O`, the T/C under setting [17] was 95 % of control and 100 % of control; the T/C (dose: 100.0 mg/kg/injection, schedule: Q01DX009 (ip), vehicle: saline) was 104 % of control and 97 % of control; the T/C (dose: 200.0 mg/kg/injection, schedule: Q01DX009 (ip), vehicle: saline) is 95 % of control and 101 % of control.

Turning to `O=C(Nc1cccc2c1C(=O)c1ccc(Nc3cc(NC(=O)c4ccccc4)c4c(c3)C(=O)c3ccccc3C4=O)cc1C2=O)c1ccccc1`, the T/C runs as follows: (dose: 100.0 mg/kg/injection, schedule: Q04DX003 (ip), vehicle: saline with Tween-80) 100 % of control; (dose: 200.0 mg/kg/injection, schedule: Q04DX003 (ip), vehicle: saline with Tween-80) 100 % of control; (dose: 400.0 mg/kg/injection, schedule: Q04DX003 (ip), vehicle: saline with Tween-80) 109 % of control.

Take `O=c1c(Cl)cc(Cl)cn1S(=O)(=O)c1ccc([N+](=O)[O-])cc1`: the T/C by setting is: under setting [16], 106 % of control; under setting [11], 105 % of control; under setting [12], 100 % of control and 104 % of control; under setting [13], 104 % of control and 89 % of control; under setting [14], 89 % of control.

For `O=C(O)CSC(SCC(=O)O)c1ccc(F)cc1`, the T/C was 96 % of control under setting [6], 96 % of control under setting [7] and 97 % of control under setting [8].

Consider `CO/C=C1\OC(=O)C=C1OC`, for which the T/C was 101 % of control under setting [6], 108 % of control under setting [7] and 114 % of control under setting [8].

These data come from PubChem BioAssay AID330 (DTP/NCI, 2004).
